Measured values from patent publication US9913817B2, “Methods for preventing or reducing colon carcinogenesis” (Nogra Pharma Limited, priority 2008, dated 2018).

Tests used:
Type in all cases: cell-based
[1] = system: HCT116 A2.1 cells; experiment: EGFP-based mutation rate / replication fidelity assay (Example 3)
Description: A EGFP-based assay to determine the changes in mutation rate upon incubation with various concentrations of the compounds was used to test whether compounds improve the replication fidelity. Briefly, 1×10^3 EGFP negative HCT116 A2.1 cells were sorted into 24-well plates on a FACS Aria. 24 hours later cells were treated with the compounds for a period of 7 days and the mutant fraction was measured by flow cytometry.

[2] = system: HCT116 A2.1 cells; experiment: EGFP-based mutation rate assay at a (CA)13 repeat (Example 4); conditions: FIG. 4
Description: A EGFP-based assay similar to Example 3 was used to determine the changes in mutation rate upon incubation with various concentrations of disclosed compounds and to test whether the compounds improve the replication fidelity. A EGFP based assay was used to determine the changes in mutation rate at a (CA)13 repeat upon incubation with various concentrations of the compounds. Briefly, 1×10^3 EGFP negative HCT116 A2.1 cells were sorted into 24-well plates on a FACS Aria. 24 hours later cells were treated with the compounds for a period of 7 days. The total cell number (c) and the EGFP-positive fraction (mutant fraction (MF)) were analyzed by flow cytometry. The mutation rate (m/(CA)13/generation (gen) was estimated by m=MF/(gen+1) and gen=log 2(c/1000×cloning efficiency). The transient mutant (M1) and definitive mutant (M2) cells were distinguished.

[3] = system: HCT116 cells; experiment: Cell cycle analysis by BrdU staining, HCT116; conditions: 10 mM-40 mM; 72 hour treatment
Description: BrdU staining was used to analyze cell cycle changes in HCT116 and HT29 cells upon 72 hour treatment with compound 39. Data represent the mean values of 3 independent experiments (* indicates a p<0.05 compared to control)

[4] = system: superoxide (O2−) released by activated neutrophils (PMN); experiment: Superoxide scavenging, O2− assay with PMA-activated neutrophils, 90 min time course (Example 2); conditions: at the investigated concentrations; 100 nM PMA; measured every 15 min for 90 min; FIG. 2A/2B
Description: Compounds 14 and 34 were tested for their potential to scavenge superoxide (O2^−) released by activated neutrophils (PMN) using a standardized O2^− assay, similar to Example 1. Activated neutrophils (PMN) were used as O2^− donors. Briefly, 1×10^6 freshly isolated neutrophils were activated with 100 nM phorbol-myristate-acetate (PMA). The O2^− release was measured every 15 min for a 90 min period by lucigenin amplified chemiluminescence on a luminometer. Either non-activated PMNs or activated PMNs incubated with superoxide dismutase (2000 U/ml, SOD) was used as a control. Experiments were carried out in triplicates

In the case of CCOC(Cc1ccc(N)cc1)C(=O)O (racemic) [compound 39, (±)-2-ethoxy-3-(4′-aminophenyl) propionic acid], the “cell growth (in words)” value ([1]; 20 mM, 7 days) is reported as “reduced cell growth”, the “effect on M1 (in words)” value ([1]; 20 mM, FIG. 3C, comparable to the effect of aspirin) is reported as “increase of M1” and the “effect on mutant fraction M1 or M2 (in words)” value ([1]; 7 days, FIG. 3C) is reported as “did not reduce the mutant fraction M1 or M2”. For the same compound, the “number of M1 (transient mutant) cells (in words)” value ([2]; 10 mM up to 40 mM, p<0.05) was “significantly lowered the number of M1 cells”, the “permanent mutant M2 population (in words)” value ([2]; 40 mM) was “significant reduction” and the “cell cycle distribution (in words)” value [3] was “did not induce a significant change”.

For COc1ccc(N)cc1C(=O)NO [compound 14], the “superoxide scavenging properties (in words)” value [4] was “significant scavenging properties”.

With CC1(C)OC(=O)c2cc(N)ccc2O1 [compound 28] the “changes in mutation rate (in words)” value ([1]; concentrations up to 1 mM, FIG. 3B) was “does not appear to cause significant changes”.
